Data as given in the supplement of paper PMC3937590.

Assays:
Assay in all cases: -log10 GI50 (growth inhibition 50%) (-log10(M)); higher = more potent growth inhibition
184A1 = system: 184A1
In short: (§1)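 Breast cancer cell lines were treated with each compound for 72 hours at nine doses in 1:5 serial dilution, in triplicate, and luminescence was read against a time-zero plate. A Gompertz curve was fitted to the dose-response data by nonlinear least squares to obtain GI50, the molar concentration giving the set level of growth inhibition, which is reported as its negative logarithm. The logarithm is base 10, and values equal to the top dose carry a < qualifier.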

BT483 = system: BT483
In short: as §1

HCC1187 = system: HCC1187
In short: as §1

HCC1954 = system: HCC1954
In short: as §1

HCC38 = system: HCC38
In short: as §1

HCC70 = system: HCC70
In short: as §1

HS578T = system: HS578T
In short: as §1

MCF10F = system: MCF10F
In short: as §1

MCF12A = system: MCF12A
In short: as §1

MDAMB175VII = system: MDAMB175VII
In short: as §1

MDAMB231 = system: MDAMB231
In short: as §1

MDAMB361 = system: MDAMB361
In short: as §1

MDAMB415 = system: MDAMB415
In short: as §1

SKBR3 = system: SKBR3
In short: as §1

SUM149PT = system: SUM149PT
In short: as §1

SUM159PT = system: SUM159PT
In short: as §1

SUM229PE = system: SUM229PE
In short: as §1

T47D = system: T47D
In short: as §1

UACC812 = system: UACC812
In short: as §1

LY2 = system: LY2
In short: as §1

Row | Compound | -log10 GI50 (184A1) | -log10 GI50 (BT483) | -log10 GI50 (HCC1187) | -log10 GI50 (HCC1954) | -log10 GI50 (HCC38) | -log10 GI50 (HCC70) | -log10 GI50 (HS578T) | -log10 GI50 (MCF10F) | -log10 GI50 (MCF12A) | -log10 GI50 (MDAMB175VII) | -log10 GI50 (MDAMB231) | -log10 GI50 (MDAMB361) | -log10 GI50 (MDAMB415) | -log10 GI50 (SKBR3) | -log10 GI50 (SUM149PT) | -log10 GI50 (SUM159PT) | -log10 GI50 (SUM229PE) | -log10 GI50 (T47D) | -log10 GI50 (UACC812) | -log10 GI50 (LY2)
1 | CC(C)Oc1ccc(C(=O)N[C@H](CNC(=O)CN(C)C)Cc2ccc(-c3cn4cccc([C@H](C)O)c4n3)cc2)cc1Cl | 5.1 | 6.44 | 7.52 | 7.6 | 7.32 | 7.68 | 7.32 | 6.29 | 6.1 | 6.76 | 5.91 | 7.43 | 7.08 | 7.34 | 7.17 | 7.43 | 7.42 | 7.29 | 7.94 | 
2 | CN(C)C/C=C/C(=O)Nc1cc2c(Nc3ccc(F)c(Cl)c3)ncnc2cc1O[C@H]1CCOC1 [BIBW2992] | 7.74 | 5.78 |  | 6.91 | 5.74 | 6.33 |  | 7.01 | 7.06 | 8.35 | 5.51 | 8.21 | 5.86 | 7.88 | 7.13 | 5.59 | 5.95 |  | 8.55 | 5.65
3 | CCc1c2c(nc3ccc(OC(=O)N4CCC(N5CCCCC5)CC4)cc13)-c1cc3c(c(=O)n1C2)COC(=O)[C@]3(O)CC [CPT-11] | 5.44 | 5.22 | 4.35 | 4.72 | 6.14 | 4.97 | 4.5 | 5.18 | 5.79 | 4.17 | 5.06 | 5.25 | 4.94 | 5.49 |  | 5.37 | 5.16 | 6.31 | 5.49 | 4.88
4 | Nc1[nH]nc2nnc(-c3c(-c4ccccc4)nn4ccccc34)cc12 | 4.61 | 4.45 | 4.7 | < 4.48 | 4.24 | 4.54 | < 4.48 | 4.09 | < 4 | 5.08 |  | 4.67 | < 4 | < 4 | 4.73 | < 4.48 | < 4.48 | < 4.48 | 4.56 | 
5 | CO[C@H]1C[C@@H]2CC[C@@H](C)[C@@](O)(O2)C(=O)C(=O)N2CCCC[C@H]2C(=O)O[C@H]([C@H](C)C[C@@H]2CC[C@@H](OCCO)[C@H](OC)C2)CC(=O)[C@H](C)/C=C(\C)[C@@H](O)[C@@H](OC)C(=O)[C@H](C)C[C@H](C)/C=C/C=C/C=C/1C [Everolimus] | 6.16 | 5.55 |  |  | 6.25 | 6.96 |  | 6 | 4.87 | 5.1 | 4.27 | 8.35 | 8.12 | 6.84 | 5.42 | 6.36 | 4.75 | 5.92 | 7.49 | 7.52
6 | COc1ccc(-c2cc3c(C)nc(N)nc3n([C@H]3CC[C@H](OCCO)CC3)c2=O)cn1 | 6.96 |  | 8.01 | 6.88 | 6.51 | 7.31 | 5.26 | 6.8 | 6.39 | 7.23 | 6.35 | 7.36 | 7.08 | 7.33 | 7.08 | 6.73 | 6.25 | 7.27 | 7.74 | 7.04
7 | O=C(O)c1ccc(-c2c[nH]c3ncc(-c4ccccc4)cc23)cc1C1CCCC1 | 5.95 | < 4.48 |  | < 4.48 | < 4.48 | < 4.18 |  | 4.59 | 5.13 | < 4.18 | < 4.18 | < 4.18 | < 4.48 | < 4.48 | < 4.18 | < 4.48 | 5.8 | < 4.48 | < 4.18 | 5.15
8 | CO[C@H]1C[C@@H]2CC[C@@H](C)[C@@](O)(O2)C(=O)C(=O)N2CCCC[C@H]2C(=O)O[C@H]([C@H](C)C[C@@H]2CC[C@@H](O)[C@H](OC)C2)CC(=O)[C@H](C)/C=C(\C)[C@@H](O)[C@@H](OC)C(=O)[C@H](C)C[C@H](C)/C=C/C=C/C=C/1C [Rapamycin] | 6.72 | 8.78 | 7.78 | 8.45 | 7.31 | 6.92 | 4.35 | 5.44 | 7.08 | 8.43 | 5.78 | 6.22 | 8.69 | 8.09 | 5.03 | 7.34 | 4.86 | 6.36 | 7.33 | 
9 | CC(C(C)N1CC(=O)NC(=O)C1)N1CC(=O)NC(=O)C1 (stereo not drawn) [ICRF-193] | < 4.3 | < 4.3 | 6.1 | 4.82 | 6.53 | < 4.3 | 5.63 | < 4.3 | 6.71 | < 4.3 |  | 4.39 | 5.39 | 5.22 | 5.59 | 6.53 | 6.14 | < 4.48 | < 4.48 | 5.97
10 | Cc1[nH]c2ccccc2c1CCNCc1ccc(/C=C/C(=O)NO)cc1 [LBH589] | 6.56 | 7.14 | 6.76 | 6.43 | 7.45 | 7.11 | 6.55 | 6.04 | 6.35 | 6.41 | 6.68 | 7.46 | 7.66 | 7.25 | 6.6 | 6.88 | 6.57 | 6.82 | 6.89 | 
11 | Cc1cncc2cccc(S(=O)(=O)N3CCCN(C(=O)CN)C[C@@H]3C)c12 [Glycyl H1152] | < 4.18 |  | 6.22 | < 4.48 | 5.96 | 6.04 | 5.82 | < 4.18 | 4.9 | < 4.18 | 4.58 | 4.65 | 5.03 | 4.33 | 4.57 | 5.76 | 5.31 | 4.82 | 4.59 | 6.28
